{
  "source": "patent US11358953B2",
  "about": "“Functionalized peptides as antiviral agents” (ENANTA PHARMACEUTICALS, INC., priority 2020, dated 2022)",
  "data": [
    {"molecular_target": "SARS-CoV-2 3CL-protease (Severe acute respiratory syndrome coronavirus 2 (2019-nCoV) (SARS-CoV-2), UniProt P0DTD1)", "experiment": "SARS-CoV-2 3C-like (3CL) protease fluorescence assay (FRET)", "format": "biochemical", "conditions": "recombinant SARS-CoV-2 3CL-protease 10 nM, 30 min preincubation at RT, substrate 40 μM, duplicate", "units": {"IC50": "nM"}, "values": [
      {"smiles": "N#C[C@H](C[C@@H]1CCNC1=O)NC(=O)[C@@H]1[C@H]2CCC[C@H]2CN1C(=O)c1cc2c(OC(F)F)cccc2[nH]1", "note": "[Ex3, (1S,3aR,6aS)—N—((S)-1-cyano-2-((S)-2-oxopyrrolidin-3-yl)ethyl)-2-(4-(difluoromethoxy)-1H-indole-2-carbonyl)octahydrocyclopenta[c]pyrrole-1-carboxamide]", "IC50": "100 to 1000"},
      {"smiles": "COc1cccc2[nH]c(C(=O)N3C[C@@H]4CCC[C@@H]4[C@H]3C(=O)N[C@H](C#N)C[C@@H]3CCCNC3=O)cc12", "note": "[Ex7, (1S,3aR,6aS)—N—((S)-1-cyano-2-((S)-2-oxopiperidin-3-yl)ethyl)-2-(4-methoxy-1H-indole-2-carbonyl)octahydrocyclopenta[c]pyrrole-1-carboxamide]", "IC50": "< 100"},
      {"smiles": "CC1(C)[C@@H]2[C@@H](C(=O)N[C@H](C#N)C[C@@H]3CCNC3=O)N(C(=O)c3cc4cc(F)c(F)cc4[nH]3)C[C@@H]21", "note": "[Ex17, (1R,2S,5S)—N—((S)-1-cyano-2-((S)-2-oxopyrrolidin-3-yl)ethyl)-3-(5,6-difluoro-1H-indole-2-carbonyl)-6,6-dimethyl-3-azabicyclo[3.1.0]hexane-2-carboxamide]", "IC50": "100 to 1000"},
      {"smiles": "COc1cccc2[nH]c(C(=O)N3C[C@@H]4CCC[C@@H]4[C@H]3C(=O)N[C@@H](C[C@@H]3CCNC3=O)C(=O)CO)cc12", "note": "[Ex10, (1S,3aR,6aS)—N—((S)-4-hydroxy-3-oxo-1-((S)-2-oxopyrrolidin-3-yl)butan-2-yl)-2-(4-methoxy-1H-indole-2-carbonyl)octahydrocyclopenta[c]pyrrole-1-carboxamide]", "IC50": "100 to 1000"},
      {"smiles": "O=C(NC1CCCCC1)C(=O)[C@H](C[C@@H]1CCNC1=O)NC(=O)[C@@H]1[C@H]2CCC[C@H]2CN1C(=O)c1cc2c(OC(F)F)cccc2[nH]1", "note": "[Ex8, (1S,3aR,6aS)—N—((S)-4-(cyclohexylamino)-3,4-dioxo-1-((S)-2-oxopyrrolidin-3-yl)butan-2-yl)-2-(4-(difluoromethoxy)-1H-indole-2-carbonyl)octahydrocyclopenta[c]pyrrole-1-carboxamide]", "IC50": "< 100"},
      {"smiles": "CC1(C)[C@@H]2[C@@H](C(=O)N[C@H](C#N)C[C@@H]3CCNC3=O)N(C(=O)c3cc4c(Cl)cccc4o3)C[C@@H]21", "note": "[Ex22, (1R,2S,5S)-3-(4-chlorobenzofuran-2-carbonyl)-N—((S)-1-cyano-2-((S)-2-oxopyrrolidin-3-yl)ethyl)-6,6-dimethyl-3-azabicyclo[3.1.0]hexane-2-carboxamide]", "IC50": "> 1000"},
      {"smiles": "CC(C)C(=O)N[C@H](C(=O)N1C[C@H]2[C@@H]([C@H]1C(=O)N[C@H](C#N)C[C@@H]1CCNC1=O)C2(C)C)C(C)(C)C", "note": "[Ex27, (1R,2S,5S)—N—((S)-1-cyano-2-((S)-2-oxopyrrolidin-3-yl)ethyl)-3-((S)-2-isobutyramido-3,3-dimethylbutanoyl)-6,6-dimethyl-3-azabicyclo[3.1.0]hexane-2-carboxamide]", "IC50": "< 100"},
      {"smiles": "N#C[C@H](C[C@@H]1CCNC1=O)NC(=O)[C@@H]1C[C@H](Oc2ccccc2)CN1C(=O)c1cc2c(OC(F)F)cccc2[nH]1", "note": "[Ex19, (2S,4S)—N—((S)-1-cyano-2-((S)-2-oxopyrrolidin-3-yl)ethyl)-1-(4-(difluoromethoxy)-1H-indole-2-carbonyl)-4-phenoxypyrrolidine-2-carboxamide]", "IC50": "> 1000"},
      {"smiles": "CC(C)(C)[C@H](NC(=O)C1CCCC1)C(=O)N1C[C@H]2[C@@H]([C@H]1C(=O)N[C@H](C#N)C[C@@H]1CCNC1=O)C2(C)C", "note": "[Ex23, (1R,2S,5S)—N—((S)-1-cyano-2-((S)-2-oxopyrrolidin-3-yl)ethyl)-3-((S)-2-(cyclopentanecarboxamido)-3,3-dimethylbutanoyl)-6,6-dimethyl-3-azabicyclo[3.1.0]hexane-2-carboxamide]", "IC50": "< 100"},
      {"smiles": "COc1cccc2[nH]c(C(=O)N3C[C@@H]4CCC[C@@H]4[C@H]3C(=O)N[C@@H](C[C@@H]3CCNC3=O)C(=O)CCl)cc12", "note": "[Ex1, (1S,3aR,6aS)—N—((S)-4-chloro-3-oxo-1-((S)-2-oxopyrrolidin-3-yl)butan-2-yl)-2-(4-methoxy-1H-indole-2-carbonyl)octahydrocyclopenta[c]pyrrole-1-carboxamide]", "IC50": "100 to 1000"}
    ]}
  ]
}
